Legend:
BTK enzyme = target: T1, BTK enzyme (Homo sapiens, UniProt Q06187); test: In vitro BTK kinase assay: BTK-POLYGAT-LS assay; format: biochemical; conditions: ATP 10 μM, read-out: IC50 (10uMATP)
T1 construct: purchased Upstate 14-552
Method in brief: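 Human BTK activity was measured with final 10 μM ATP and 100 nM polyGAT substrate in pH 7.5 Tris buffer with 10 mM MgCl2, DTT, Triton X-100 and casein.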

[1] = target: BTK (phospho-BTK) in human whole blood (Homo sapiens, UniProt Q06187); test: In vitro PD assay in human whole blood (pBTK assay)
BTK (phospho-BTK) in human whole blood, sequence (Q06187 whole entry): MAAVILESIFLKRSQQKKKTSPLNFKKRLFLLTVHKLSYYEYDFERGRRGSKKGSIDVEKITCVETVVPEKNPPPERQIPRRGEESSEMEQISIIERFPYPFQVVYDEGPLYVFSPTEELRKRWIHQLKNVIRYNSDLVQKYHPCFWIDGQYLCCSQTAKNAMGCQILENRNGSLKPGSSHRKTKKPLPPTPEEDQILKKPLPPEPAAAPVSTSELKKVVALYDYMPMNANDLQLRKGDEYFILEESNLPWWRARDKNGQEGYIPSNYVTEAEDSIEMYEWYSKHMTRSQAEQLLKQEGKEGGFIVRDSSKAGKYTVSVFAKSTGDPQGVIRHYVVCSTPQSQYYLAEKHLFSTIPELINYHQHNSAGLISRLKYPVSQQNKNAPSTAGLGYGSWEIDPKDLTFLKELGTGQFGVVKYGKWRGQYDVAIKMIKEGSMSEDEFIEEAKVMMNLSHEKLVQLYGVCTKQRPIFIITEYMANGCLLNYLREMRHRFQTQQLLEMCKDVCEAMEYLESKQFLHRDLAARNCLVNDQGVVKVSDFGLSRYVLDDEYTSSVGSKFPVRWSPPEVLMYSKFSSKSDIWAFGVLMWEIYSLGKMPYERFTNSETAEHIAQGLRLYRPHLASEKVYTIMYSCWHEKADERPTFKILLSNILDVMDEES

T1 sequence (Q06187 whole entry): as above

IC50 (BTK enzyme)	IC50 [1]	SMILES
< 10 nM	< 500 nM	Cn1cc(Nc2nccc(-c3cc(Cl)c(CNC(=O)c4cnc(C(C)(C)C)s4)cc3F)n2)cn1 [Example I-118, 2-(tert-butyl)-N-(2-chloro-5-fluoro-4-(2-((1-methyl-1H-pyrazol-4-yl)amino)pyrimidin-4-yl)benzyl)thiazole-5-carboxamide]
< 10 nM	500 to 1500 nM	Cc1cc(-c2ccnc(Nc3cnn(CCO)c3)n2)ccc1CNC(=O)c1cc2c(s1)CCOC2 [Example I-120, N-(4-(2-((1-(2-hydroxyethyl)-1H-pyrazol-4-yl)amino)pyrimidin-4-yl)-2-methylbenzyl)-6,7-dihydro-4H-thieno[3,2-c]pyran-2-carboxamide]
< 10 nM	< 500 nM	Cc1cc(-c2cc(Nc3cc4n(n3)CCN(C)C4)ncn2)ccc1CNC(=O)N1CC(OC(C)C)C1 [Example I-121, 3-isopropoxy-N-(2-methyl-4-(6-((5-methyl-4,5,6,7-tetrahydropyrazolo[1,5-a]pyrazin-2-yl)amino)pyrimidin-4-yl)benzyl)azetidine-1-carboxamide]
< 10 nM	< 500 nM	Cc1cc(-c2ccnc(Nc3cnn([C@@H]4CCNC4)c3)n2)ccc1CNC(=O)c1cnc(C(C)(C)C)s1 [Example I-122, (R)-2-(tert-butyl)-N-(2-methyl-4-(2-((1-(pyrrolidin-3-yl)-1H-pyrazol-4-yl)amino)pyrimidin-4-yl)benzyl)thiazole-5-carboxamide]
< 10 nM	< 500 nM	Cc1cc(-c2ccnc(Nc3cnn([C@@H]4CCN(C)C4)c3)n2)ccc1CNC(=O)c1cnc(C(C)(C)C)s1 [Example I-123, (R)-2-(tert-butyl)-N-(2-methyl-4-(2-((1-(1-methylpyrrolidin-3-yl)-1H-pyrazol-4-yl)amino)pyrimidin-4-yl)benzyl)thiazole-5-carboxamide]
< 10 nM	< 500 nM	Cc1cc(-c2ccnc(Nc3cnn([C@H]4CCNC4)c3)n2)ccc1CNC(=O)c1cnc(C(C)(C)C)s1 [Example I-124, (S)-2-(tert-butyl)-N-(2-methyl-4-(2-((1-(pyrrolidin-3-yl)-1H-pyrazol-4-yl)amino)pyrimidin-4-yl)benzyl)thiazole-5-carboxamide]
< 10 nM	< 500 nM	Cc1cc(-c2ccnc(Nc3cnn([C@H]4CCN(C)C4)c3)n2)ccc1CNC(=O)c1cnc(C(C)(C)C)s1 [Example I-125, (S)-2-(tert-butyl)-N-(2-methyl-4-(2-((1-(1-methylpyrrolidin-3-yl)-1H-pyrazol-4-yl)amino)pyrimidin-4-yl)benzyl)thiazole-5-carboxamide]
< 10 nM	< 500 nM	Cc1cc(-c2ccnc(Nc3cnn(C[C@@H]4CNCCO4)c3)n2)ccc1CNC(=O)c1cnc(C(C)(C)C)s1 [Example I-126, (S)-2-(tert-butyl)-N-(2-methyl-4-(2-((1-(morpholin-2-ylmethyl)-1H-pyrazol-4-yl)amino)pyrimidin-4-yl)benzyl)thiazole-5-carboxamide]
< 10 nM	500 to 1500 nM	Cc1cc(-c2ccnc(Nc3cnn(C[C@H](O)CN)c3)n2)ccc1CNC(=O)c1cnc(C(C)(C)C)s1 [Example I-127, (R)—N-(4-(2-((1-(3-amino-2-hydroxypropyl)-1H-pyrazol-4-yl)amino)pyrimidin-4-yl)-2-methylbenzyl)-2-(tert-butyl)thiazole-5-carboxamide]
< 10 nM	< 500 nM	Cc1cc(-c2ccnc(Nc3cnn(C[C@H]4CNCCO4)c3)n2)ccc1CNC(=O)c1cnc(C(C)(C)C)s1 [Example I-128, (R)-2-(tert-butyl)-N-(2-methyl-4-(2-((1-(morpholin-2-ylmethyl)-1H-pyrazol-4-yl)amino)pyrimidin-4-yl)benzyl)thiazole-5-carboxamide]
< 10 nM	500 to 1500 nM	Cc1cc(-c2ccnc(Nc3cnn(C[C@@H](O)CN)c3)n2)ccc1CNC(=O)c1cnc(C(C)(C)C)s1 [Example I-129, (S)—N-(4-(2-((1-(3-amino-2-hydroxypropyl)-1H-pyrazol-4-yl)amino)pyrimidin-4-yl)-2-methylbenzyl)-2-(tert-butyl)thiazole-5-carboxamide]
< 10 nM	< 500 nM	Cc1cc(-c2ccnc(Nc3cnn(C[C@H](N)C(=O)O)c3)n2)ccc1CNC(=O)c1cnc(C(C)(C)C)s1 [Example I-130, (S)-2-amino-3-(4-((4-(4-((2-(tert-butyl)thiazole-5-carboxamido)methyl)-3-methylphenyl)pyrimidin-2-yl)amino)-1H-pyrazol-1-yl)propanoic acid]
< 10 nM	500 to 1500 nM	Cc1cc(-c2ccnc(Nc3cnn(C[C@H](N)CO)c3)n2)ccc1CNC(=O)c1cnc(C(C)(C)C)s1 [Example I-131, (S)—N-(4-(2-((1-(2-amino-3-hydroxypropyl)-1H-pyrazol-4-yl)amino)pyrimidin-4-yl)-2-methylbenzyl)-2-(tert-butyl)thiazole-5-carboxamide]
< 10 nM	1500 to 10000 nM	Cc1cc(-c2ccnc(Nc3cnn(C[C@@H](N)C(=O)O)c3)n2)ccc1CNC(=O)c1cnc(C(C)(C)C)s1 [Example I-132, (R)-2-amino-3-(4-((4-(4-((2-(tert-butyl)thiazole-5-carboxamido)methyl)-3-methylphenyl)pyrimidin-2-yl)amino)-1H-pyrazol-1-yl)propanoic acid]
< 10 nM	1500 to 10000 nM	Cc1cc(-c2ccnc(N)n2)ccc1CNC(=O)c1cnc(C(C)(C)C)s1 [Example I-135, N-(4-(2-aminopyrimidin-4-yl)-2-methylbenzyl)-2-(tert-butyl)thiazole-5-carboxamide]
< 10 nM	1500 to 10000 nM	Cc1cc(-c2ccnc(N)n2)ccc1CNC(=O)c1cc2c(s1)CCCC2 [Example I-142, N-(4-(2-aminopyrimidin-4-yl)-2-methylbenzyl)-4,5,6,7-tetrahydrobenzo[b]thiophene-2-carboxamide]
< 10 nM	< 500 nM	CCn1cc(Nc2nccc(-c3ccc4c(c3)CCCCC4NC(=O)N3CC(OC(C)C)C3)n2)cn1 (stereo not shown) [Example I-166, N-(2-(2-((1-ethyl-1H-pyrazol-4-yl)amino)pyrimidin-4-yl)-6,7,8,9-tetrahydro-5H-benzo[7]annulen-5-yl)-3-isopropoxyazetidine-1-carboxamide]
< 10 nM	< 500 nM	CC(C)OC1CN(C(=O)NC2CCCCc3cc(-c4ccnc(Nc5cnn(C(C)C)c5)n4)ccc32)C1 (stereo not shown) [Example I-167, 3-isopropoxy-N-(2-(2-((1-isopropyl-1H-pyrazol-4-yl)amino)pyrimidin-4-yl)-6,7,8,9-tetrahydro-5H-benzo[7]annulen-5-yl)azetidine-1-carboxamide]

SMILES	IC50 (BTK enzyme)	IC50 [1]
Cn1cc(Nc2nccc(-c3ccc4c(c3)CCCCC4NC(=O)N3CC(OC(C)(C)C)C3)n2)cn1 (stereo not shown) [Example I-163, 3-(tert-butoxy)-N-(2-(2-((1-methyl-H-pyrazol-4-yl)amino)pyrimidin-4-yl)-6,7,8,9-tetrahydro-5H-benzo[7]annulen-5-yl)azetidine-1-carboxamide]	< 10 nM	< 500 nM
Cn1cc(Nc2nccc(-c3ccc4c(c3)CCCC[C@H]4NC(=O)N3CC(OC(C)(C)C)C3)n2)cn1 [Example I-164, (R)-3-(tert-butoxy)-N-(2-(2-((1-methyl-1H-pyrazol-4-yl)amino)pyrimidin-4-yl)-6,7,8,9-tetrahydro-5H-benzo[7]annulen-5-yl)azetidine-1-carboxamide]	< 10 nM	< 500 nM
